# Target: T1, integrin α4β1 (Jurkat cells) binding with recombinant human VCAM-1 (Homo sapiens, UniProt P05556+P13612)
# T1 construct: cell strain Jurkat (ATCC TIB-152) of human T cells, known to express integrin α4β1; endogenous in cells; host or cells: Jurkat (ATCC TIB-152), human T cells
# Assay: VCAM antagonistic activity (VCAM-1/α4β1 binding assay), Jurkat cell adhesion
# Assay type: cell-based
# Settings: read-out: VCAM/α 4 β 1 antagonistic activity to integrin (IC50)
# Procedure: (Test Example) VCAM Antagonistic Activity (VCAM-1/α4β1 Binding Assay):
# The capacity of a test substance antagonistic to the binding of cell strain Jurkat (ATCC TIB-152) of human T cells, known to express integrin α4β1, with VCAM-1 was determined. 100 μl/well of a solution (500 ng/ml ) of recombinant human VCAM-1 (R & D systems) diluted with buffer A (0.1 M NaHCO3, pH 9.6) was added to a micro titer plate having 96 wells (Nunc Maxisorp). After the incubation at 4° C. overnight, unbound VCAM-1 was removed by once washing with PBS. After completion of the washing, a buffer (buffer B) obtained by diluting Block Ace® (Dainippon Pharmaceutical Co., Ltd.) with PBS to 1/4 concentration was added in an amount of 150 μl /well. After the incubation at room temperature for 1 hour, buffer B was removed and the plate was washed with PBS once.
# Jurkat cells were washed with Dulbecco modified Eagle medium (SIGMA, hereinafter referred to as “DMEM”) twice and then incubated in DMEM containing 10 μg/ml of Calcein-AM (Wako Pure Chemical Industries, Ltd.) at 37° C. in dark place for 30 minutes to label them with fluorescence. The cells were again suspended in a binding buffer (DMEM containing 20 mM HEPES, 0.1% BSA).
# 50 μl of a test substance of various concentrations obtained by the dilution with the binding buffer was added to the plate. Immediately thereafter, 50 μl (final volume: 100 μl/well) of the fluorescent Jurkat cells (4×10^6 cells/ml ) were added thereto, and they were incubated at room temperature for 30 minutes. After the shaking on a plate shaker (IKA MTS-4) at 800 rpm for 30 seconds, the solution was immediately removed to remove the unbound cells. The fluorescence quantity of the bound cells remaining in the wells was determined with a fluorescent plate reader (Wallac 1420 ARVO multi-label counter) (filter excitation wave length: 485 nm, emission wave length: 535 nm). The fluorescent strength thus obtained is proportional to the number of Jurkat cells bound to VCAM-1 and remaining on the plate. The binding rate of each test material in various concentrations was determined while the fluorescent strength of the test material-free well was determined to be 100%. The concentration IC50 for the 50% binding inhibition was calculated.
# T1 sequence (P13612 34-1032): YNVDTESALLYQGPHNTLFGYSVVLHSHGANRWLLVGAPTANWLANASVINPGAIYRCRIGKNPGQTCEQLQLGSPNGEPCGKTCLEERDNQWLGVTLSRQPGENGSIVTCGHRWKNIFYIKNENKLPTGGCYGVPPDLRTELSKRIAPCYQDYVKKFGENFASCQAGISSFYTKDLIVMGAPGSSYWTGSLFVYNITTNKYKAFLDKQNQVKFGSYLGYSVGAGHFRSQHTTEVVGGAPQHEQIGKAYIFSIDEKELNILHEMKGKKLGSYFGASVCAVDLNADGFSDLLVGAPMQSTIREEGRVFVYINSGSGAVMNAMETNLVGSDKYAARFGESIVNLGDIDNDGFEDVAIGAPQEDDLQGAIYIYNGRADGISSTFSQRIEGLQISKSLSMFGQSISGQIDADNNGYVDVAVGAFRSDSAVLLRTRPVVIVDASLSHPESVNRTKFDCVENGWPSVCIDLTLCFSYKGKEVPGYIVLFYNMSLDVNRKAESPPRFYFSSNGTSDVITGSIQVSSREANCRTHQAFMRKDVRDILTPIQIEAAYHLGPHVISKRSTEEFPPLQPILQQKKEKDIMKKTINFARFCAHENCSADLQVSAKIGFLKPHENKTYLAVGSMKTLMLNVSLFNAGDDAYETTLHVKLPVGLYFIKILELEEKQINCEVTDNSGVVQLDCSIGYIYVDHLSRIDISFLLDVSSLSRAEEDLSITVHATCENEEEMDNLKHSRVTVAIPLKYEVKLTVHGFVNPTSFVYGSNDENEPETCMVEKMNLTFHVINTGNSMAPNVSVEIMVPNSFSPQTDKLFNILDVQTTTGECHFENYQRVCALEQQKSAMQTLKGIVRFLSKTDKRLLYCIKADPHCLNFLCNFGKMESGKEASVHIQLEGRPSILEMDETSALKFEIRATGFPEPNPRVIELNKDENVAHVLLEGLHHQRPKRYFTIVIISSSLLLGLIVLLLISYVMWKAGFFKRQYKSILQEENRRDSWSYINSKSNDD
# T1 sequence (P05556 21-798): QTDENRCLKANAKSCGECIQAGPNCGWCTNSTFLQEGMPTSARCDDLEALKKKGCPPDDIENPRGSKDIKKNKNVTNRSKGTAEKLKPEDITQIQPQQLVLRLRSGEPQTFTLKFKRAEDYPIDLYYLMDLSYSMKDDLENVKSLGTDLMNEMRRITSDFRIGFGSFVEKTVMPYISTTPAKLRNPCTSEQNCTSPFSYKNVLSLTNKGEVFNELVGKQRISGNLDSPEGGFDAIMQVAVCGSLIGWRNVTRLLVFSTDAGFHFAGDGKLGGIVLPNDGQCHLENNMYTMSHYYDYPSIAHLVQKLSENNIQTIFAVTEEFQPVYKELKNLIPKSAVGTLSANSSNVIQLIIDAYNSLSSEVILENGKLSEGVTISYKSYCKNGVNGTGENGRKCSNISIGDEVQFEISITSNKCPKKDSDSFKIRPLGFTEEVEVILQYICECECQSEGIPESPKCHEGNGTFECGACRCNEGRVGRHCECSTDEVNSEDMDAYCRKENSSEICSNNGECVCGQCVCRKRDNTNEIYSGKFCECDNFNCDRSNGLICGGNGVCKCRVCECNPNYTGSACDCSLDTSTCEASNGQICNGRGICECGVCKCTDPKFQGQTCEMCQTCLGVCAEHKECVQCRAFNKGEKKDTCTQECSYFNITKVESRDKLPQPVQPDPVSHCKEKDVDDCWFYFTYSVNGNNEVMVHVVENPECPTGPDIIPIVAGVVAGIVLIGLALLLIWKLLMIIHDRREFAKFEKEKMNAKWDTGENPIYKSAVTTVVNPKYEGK
row,IC50,Compound
1,25 to 50 µM,"O=C(O)[C@H](Cc1ccc(OCc2c(Cl)cccc2Cl)cc1)NC(=O)[C@H]1CC[C@H](C(=O)NNc2ccccc2)CC1 [Example 3, N-(Trans-4-phenylhydrazinocarbonylcyclohexane-1-carbonyl)-O-(2,6-dichlorobenzyl)-L-tyrosine]"
2,1 to 5 µM,"COc1cccc(OC)c1-c1ccc(C[C@H](NC(=O)[C@H]2CC[C@H](C(=O)O)CC2)C(=O)O)cc1 [Example 50, N-(Trans-4-carboxycyclohexane-1-carbonyl)-4-(2,6-dimethoxyphenyl)-L-phenylalanine]"
3,1 to 5 µM,Cc1ccc(NNC(=O)[C@H]2CC[C@H](C(=O)N[C@@H](Cc3ccc(OCc4c(Cl)cccc4Cl)cc3)C(=O)O)CC2)cc1 [Example 34]
4,25 to 50 µM,"O=C(O)[C@H](Cc1ccc(OCc2c(Cl)cccc2Cl)cc1)NC(=O)[C@H]1CC[C@H](C(=O)NNc2ccc(Br)cc2)CC1 [Example 4, N-[Trans-4-(4-bromophenylhydrazinocarbonyl)cyclohexane-1-carbonyl]-O-(2,6-dichlorobenzyl)-L-tyrosine]"
5,5 to 25 µM,"COc1ccc(NNC(=O)[C@H]2CC[C@H](C(=O)N[C@@H](Cc3ccc(NC(=O)c4snnc4-c4ccccc4)cc3)C(=O)O)CC2)cc1 [Example 46, N-[Trans-4-(4-methoxyphenylhydrazinocarbonyl)cyclohexane-1-carbonyl]-4-{[(4-phenyl-1,2,3-thiadiazole-5-yl)carbonyl]amino}-L-phenyl-alanine]"
6,1 to 5 µM,"COc1ccc(NNC(=O)[C@H]2CC[C@H](C(=O)N[C@@H](Cc3ccc(-c4c(OC)cccc4OC)cc3)C(=O)O)CC2)cc1 [Example 51, N-[Trans-4-(4-methoxyphenylhydrazinocarbonyl)cyclohexane-1-carbonyl]-4-(2,6-dimethoxyphenyl)-L-phenylalanine]"
7,1 to 5 µM,COc1ccc(NNC(=O)[C@H]2CC[C@H](C(=O)N[C@@H](Cc3ccc(OCc4c(Cl)cccc4Cl)cc3)C(=O)O)CC2)cc1 [Example 14]
8,5 to 25 µM,COc1cccc(NNC(=O)[C@H]2CC[C@H](C(=O)N[C@@H](Cc3ccc(OCc4c(Cl)cccc4Cl)cc3)C(=O)O)CC2)c1 [Example 44]
9,25 to 50 µM,O=C(O)[C@H](Cc1ccc(OCc2c(Cl)cccc2Cl)cc1)NC(=O)[C@H]1CC[C@H](C(=O)NNc2ccc(OC(F)(F)F)cc2)CC1 [Example 35]
10,1 to 5 µM,"O=C(Nc1ccc(C[C@H](NC(=O)[C@H]2CC[C@H](C(=O)O)CC2)C(=O)O)cc1)c1snnc1-c1ccccc1 [Example 45, N-(Trans-4-carboxycyclohexane-1-carbonyl)-4-{[(4-phenyl-1,2,3-thiadiazole-5-yl)carbonyl]amino}-L-phenylalanine]"
11,5 to 25 µM,"O=C(O)[C@H](Cc1ccc(OCc2c(Cl)cccc2Cl)cc1)NC(=O)[C@H]1CC[C@H](C(=O)O)CC1 [Example 2, N-(Trans-4-carboxycyclohexane-1-carbonyl)-O-(2,6-dichlorobenzyl)-L-tyrosine]"
12,25 to 50 µM,O=C(O)[C@H](Cc1ccc(OCc2c(Cl)cccc2Cl)cc1)NC(=O)[C@H]1CC[C@H](C(=O)NCc2ccccc2)CC1 [Example 6]

# — US6610710B2, “Phenylalanine derivatives” (Ajinomoto Co., Inc., priority 1999, dated 2003)
